# Measurements published in patent US12246071B2, “Brain-penetrating ligand and drug carrier” (priority 2018, dated 2025).
# Columns and labels:
# SH-SY5Y cells [1] = assay: Intracellular accumulation of amyloid β; assay type: cell-based, human; settings: 1 mM, 24 hours, after U18666A 7.5 μM and HiLyte488-Aβ 250 nM
# Method: Using SH-SY5Y cells, the amyloid β accumulation in the cells was measured. SH-SY5Y cells were seeded at 1.0×10^4 cells/glass dish and incubated at 37° C. for 24 hours. Then, washed with PBS, 150 μL of a medium containing U18666A (7.5 μM) and HiLyte488-Aβ (purchased from AnaSpec) (250 nM) was added and incubated at 37° C. for 24 hours. After washing with PBS, 200 μL of a medium containing HP-β-CyD (DS4.4.1 mM) or Lac-HP-β-CyD (DSL3.0, 1 mM) was added, and the mixture was incubated at 37° C. for 24 hours. After washing with PBS, 200 μL of a medium supplemented with Lysostacker (registered trademark) (final concentration: 100 nM) was added. After incubating for 30 minutes, it was fixed with 4% paraformaldehyde and the FIlipin solution was added.
# SH-SY5Y cells [2] = assay: Cholesterol leakage from U18666A-treated cells; assay type: cell-based, human; settings: 1.0, 10.0 and 20.0 mM, 2 hours, 37° C., after U18666A 7.5 μM
# Method: SH-SY5Y cells (1.0×10^5 cells), which are human neuroblasts, were seeded in a 24-well plate, incubated at 37° C. for 24 hours, then, washed with PBS, and a medium supplemented with U18666A (7.5 μM) was added, and it was incubated for an additional 24 hours. Then, washed with PBS, and 150 μL of a medium (HBSS, FBS (−)) containing HP-3-CyD (DS4.4) (1.0, 10.0 and 20.0 mM) or Lac-HP-β-CyD (DSL3.0) (1.0, 10.0 and 20.0 mM) was added. After incubating at 37° C. for 2 hours, the supernatant was collected and centrifuged (10,000). The cholesterol concentration and phospholipid concentration in the obtained supernatant were measured with cholesterol E-Test wako and phospholipid C-Test wako.
# [3] = Organ distribution of fluorescently labeled Lac-HP-β-CyD after intravenous injection (IVIS); assay type: in vivo, BALB/c mouse; settings: HiLyte-labeled, 10 mg/kg intravenous, BALB/c mice, 10 minutes
# Method: BALB/c mice (8 weeks old, male, 20 g) were intravenously injected with HiLyte-HP-β-CyD (DS4.4) or HiLyte-Lac-HP-β-CyD (DSL3.0) at a dose of 10 mg/kg. After 10 minutes, the mice were euthanized, perfused with PBS and each organ was collected. Each organ was observed by IVIS.
# hCMEC/D3 cells = assay: Uptake of HiLyte-labeled Lac-HP-β-CyD into brain capillary endothelial cells (confocal microscope); assay type: cell-based, human; settings: 1 mM, 1 hour, 37° C.
# Method: Lac-HP-β-CyD (DSL3.0) and the control HP-β-CyD […] were labeled with HiLyte fluorescent dye according to the manufacturer's manual. The following experiments were carried out using these.
# Using hCMEC/D3 cells, which are human brain capillary endothelial cells, the uptake of Lac-HP-β-CyD into cells was confirmed. hCMEC/D3 cells were seeded at 1.0×10^4 cells/glass dish and incubated at 37° C. for 24 hours. Then, it was washed with PBS, and 150 μL of a medium containing HiLyte-HP-β-CyD (DS4.4, 1 mM) or HiLyte-Lac-HP-β-CyD (DSL3.0, 1 mM) was added, and incubated at 37° C. for 1 hour. After washing with PBS, it was fixed with 4% paraformaldehyde.
# SH-SY5Y cells [4] = assay: Uptake into SH-SY5Y cells after permeation of the hCMEC/D3 monolayer; assay type: cell-based, human; settings: HiLyte-labeled, 1 mM on upper side, 60 minutes
# Method: hCMEC/D3 cells were seeded in the upper component of a transwell at 2.0×10^5 cells/well, incubated at 37° C. for 5 days, then, the transepithelial electrical resistance (TEER) was measured. SH-SY5Y cells were seeded at 1.0×10^5 cells/well in a 6-well plate, which is a lower component, and incubated at 37° C. for 1 day. […] Over time (upper side 0, 60 minutes; lower side 0, 5, 15, 30, and 60 minutes), the medium was sampled, the fluorescence intensity was measured using I-control (M1000) (TECAN), and the permeation amount was measured. Similar to Example 4, the permeation coefficient Papp (cm/sec) was calculated as follows.
substance,measurement,setting,value
lactose-modified hydroxypropyl-β-cyclodextrin [Lac-HP-β-CyD],Aβ clearance / intracellular amyloid β accumulation,SH-SY5Y cells [1],normalized the Aβ clearance by reducing the amount of cholesterol in cells
same,cholesterol leakage into supernatant,SH-SY5Y cells [2],less cholesterol leakage than HP-β-CyD
same,penetration to the brain (fluorescence intensity of organ),[3],significantly penetrated to the brain as compared with HP-β-CyD
same,uptake into cells,hCMEC/D3 cells,significantly taken up into the cells as compared with HP-β-CyD
same,uptake into SH-SY5Y cells after BBB permeation,SH-SY5Y cells [4],significantly taken up into SH-SY5Y cells after BBB permeation as compared with HP-β-CyD
